Laboratory results: article PMC10722324 (Heliyon, 2023)

Columns and labels:
[1] = tested on: differentiated SH-SY5Y cells; experiment: Toxicity screening on differentiated SH-SY5Y cells; format: cell-based, human; conditions: MTT, mean ± SD (n = 5)
Aβ1–42 = Aβ1–42 (Homo sapiens, UniProt P05067); experiment: biochemical; conditions: Aβ aggregation (IC50), Aβ1-42, ThT, 37 °C 48 h, compounds 0–200 μM
BuChE = BuChE (Homo sapiens, UniProt P06276); experiment: biochemical
BuChE, sequence (P06276 29-602): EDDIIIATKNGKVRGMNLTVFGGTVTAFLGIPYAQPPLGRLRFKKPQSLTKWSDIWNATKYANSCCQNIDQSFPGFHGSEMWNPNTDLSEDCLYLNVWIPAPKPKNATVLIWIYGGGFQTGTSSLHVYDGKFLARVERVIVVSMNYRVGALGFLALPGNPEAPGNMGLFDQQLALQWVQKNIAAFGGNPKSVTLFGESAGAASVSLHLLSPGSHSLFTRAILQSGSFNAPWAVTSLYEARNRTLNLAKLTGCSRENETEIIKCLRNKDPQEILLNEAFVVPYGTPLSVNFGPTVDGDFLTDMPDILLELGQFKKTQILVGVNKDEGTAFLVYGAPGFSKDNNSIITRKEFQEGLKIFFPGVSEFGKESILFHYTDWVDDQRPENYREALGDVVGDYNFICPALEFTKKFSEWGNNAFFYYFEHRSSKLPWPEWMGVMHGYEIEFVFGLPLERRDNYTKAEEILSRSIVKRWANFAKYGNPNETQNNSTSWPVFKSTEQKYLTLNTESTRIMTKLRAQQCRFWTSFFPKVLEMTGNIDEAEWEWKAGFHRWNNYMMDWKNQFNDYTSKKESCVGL

Aβ1–42, sequence (P05067 672-713): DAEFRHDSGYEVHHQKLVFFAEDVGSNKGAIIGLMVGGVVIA

| Compound | Cell viability ([1]; 0.1 μM) | Cell viability ([1]; 1 μM) | Cell viability ([1]; 10 μM) | Cell viability ([1]; 100 μM) | IC50 (Aβ1–42) | IC50 (BuChE) |
| --- | --- | --- | --- | --- | --- | --- |
| COc1c(C(=O)/C=C(\O)c2ccccc2)ccc2occc12 [CY3, pongamol] | 103.3 ± 1.4 % control | 103.6 ± 1.1 % control | 104.3 ± 3.8 % control | 103.1 ± 4.0 % control | > 200 µM | 102 ± 1.27 µM |
| O=c1cc(-c2ccccc2)oc2c1ccc1occc12 [CY14, lanceolatin B] | 102.4 ± 1.3 % control | 100.1 ± 2.6 % control | 97.4 ± 3.2 % control | 72.4 ± 3.4 % control | 106 µM |  |
| COc1cc(/C=C/C(=O)CC(=O)/C=C/c2ccc(O)c(OC)c2)ccc1O [Curcumin, reference compound] | 104.1 ± 3.2 % control | 100.4 ± 4.6 % control | 100.5 ± 7.7 % control | 79.1 ± 3.6 % control |  |  |
| COc1c2ccoc2cc2oc(-c3ccccc3)cc(=O)c12 [CY2, pinnatin] | 96.7 ± 3.1 % control | 99.3 ± 4.7 % control | 96.1 ± 4.3 % control | 68.5 ± 2.2 % control | 195 ± 3.2 µM | 82 ± 1.3 µM |
